In patent US9174974B2, “Macrocyclic factor VIIa inhibitors” (BRISTOL-MYERS SQUIBB COMPANY, priority 2012, dated 2015):
Read-outs that look alike come from different tables or passages of the source.

Assays:
tissue kallikrein (HK1) = tissue kallikrein (HK1) (Homo sapiens (Human), UniProt P06870); assay: Tissue kallikrein-1 (HK1) Ki, fluorogenic substrate assay; assay type: biochemical; conditions: 37° C.
human FVIIa = human FVIIa (Homo sapiens (Human), UniProt P08709); assay: FVIIa Ki (37° C.), FVIIa-Xase assay; assay type: biochemical; conditions: for Ki(HK1)/Ki(FVIIa): selectivity ratio, tissue kallikrein (HK1) vs FVIIa
Chain of human FVIIa (P08709 61-212): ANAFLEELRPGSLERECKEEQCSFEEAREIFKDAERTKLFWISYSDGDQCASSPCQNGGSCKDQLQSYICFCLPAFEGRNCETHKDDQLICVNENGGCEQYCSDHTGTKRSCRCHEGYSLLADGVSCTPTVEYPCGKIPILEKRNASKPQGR
Chain of human FVIIa (P08709 213-466): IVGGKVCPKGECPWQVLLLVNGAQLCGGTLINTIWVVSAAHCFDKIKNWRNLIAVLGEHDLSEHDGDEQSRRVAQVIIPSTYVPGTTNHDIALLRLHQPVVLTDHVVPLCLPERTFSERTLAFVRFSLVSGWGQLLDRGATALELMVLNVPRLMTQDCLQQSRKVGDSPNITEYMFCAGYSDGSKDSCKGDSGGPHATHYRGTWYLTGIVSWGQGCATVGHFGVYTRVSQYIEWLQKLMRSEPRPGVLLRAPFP
Chain of human FVIIa (P13726 33-295 partner): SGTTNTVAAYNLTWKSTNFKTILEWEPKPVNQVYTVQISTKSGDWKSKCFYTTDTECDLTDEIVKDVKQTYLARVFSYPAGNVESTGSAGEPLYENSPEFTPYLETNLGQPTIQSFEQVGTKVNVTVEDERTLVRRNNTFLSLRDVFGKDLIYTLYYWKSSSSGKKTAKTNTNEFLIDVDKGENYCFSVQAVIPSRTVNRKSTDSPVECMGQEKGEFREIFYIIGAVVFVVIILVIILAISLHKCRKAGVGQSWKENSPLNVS

Chain of tissue kallikrein (HK1) (P06870 25-262): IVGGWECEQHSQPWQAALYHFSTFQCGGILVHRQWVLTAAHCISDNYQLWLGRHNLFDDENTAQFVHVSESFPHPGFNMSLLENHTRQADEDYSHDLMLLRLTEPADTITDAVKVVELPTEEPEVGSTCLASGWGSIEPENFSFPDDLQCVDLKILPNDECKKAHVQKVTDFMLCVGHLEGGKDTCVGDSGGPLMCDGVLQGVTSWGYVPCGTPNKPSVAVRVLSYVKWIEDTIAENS

Structure (SMILES) | Ki (tissue kallikrein (HK1)) | Ki (human FVIIa) | Ki(HK1)/Ki(FVIIa) (human FVIIa) | Ki (human FVIIa; read-out: FVIIa Ki, nM 37° C.)
Cc1cc2ccc1[C@@H](C)COC(=O)Nc1cc(F)c(S(=O)(=O)C(C)C)c(c1)CN(C)C(=O)[C@@H]2Nc1cc(F)c2c(N)nccc2c1.O=C(O)C(F)(F)F [Example 20, (2R,15R)-2-[(1-Amino-8-fluoroisoquinolin-6-yl)amino]-8-fluoro-4,15,17-trimethyl-7-(propane-2-sulfonyl)-13-oxa-4,11-diazatricyclo[14.2.2.1^6,10]henicosa-1(18),6,8,10 (21),16,19-hexaene-3,12-dione; trifluoroacetic acid] | 120 nM | – | 333 | 0.36 nM
CCN(Cc1nccs1)C(=O)c1ccc2cc1CN(C)C(=O)[C@H](Nc1ccc3c(N)nccc3c1)c1ccc(c(C)c1)[C@@H](C)COC(=O)N2.O=C(O)C(F)(F)F [Example 23, (2R,15R)-2-[(1-Aminoisoquinolin-6-yl)amino]-N-ethyl-4,15,17-trimethyl-3,12-dioxo-N-(1,3-thiazol-2-ylmethyl)-13-oxa-4,11-diazatricyclo[14.2.2.1^6,10]henicosa-1(18),6,8,10 (21),16,19-hexaene-7-carboxamide; trifluoroacetic acid] | 330 nM | – | 1100 | 0.3 nM
COc1cc2c(F)cc1[C@@H](C)COC(=O)Nc1ccc(S(=O)(=O)C3CC3)c(c1)CN(C)C(=O)[C@@H]2Nc1cc2ccnc(N)c2cc1F.O=C(O)C(F)(F)F [Example 25, (2R,15R)-2-[(1-Amino-7-fluoroisoquinolin-6-yl)amino]-7-(cyclopropanesulfonyl)-18-fluoro-20-methoxy-4,15-dimethyl-13-oxa-4,11-diazatricyclo[14.2.2.1^6,10]henicosa-1(18),6,8,10 (21),16,19-hexaene-3,12-dione; trifluoroacetic acid] | 270 nM | – | 1080 | 0.25 nM
Cc1cc2ccc1[C@@H](C)COC(=O)Nc1cc(F)c(O[C@@H]3COC[C@@H]3O)c(c1)CN(C)C(=O)[C@@H]2Nc1ccc2c(N)nccc2c1.O=C(O)C(F)(F)F [Example 27, (2R,15R)-2-[(1-Aminoisoquinolin-6-yl)amino]-8-fluoro-7-{[(3R,4S)-4-hydroxyoxolan-3-yl]oxy}-4,15,17-trimethyl-13-oxa-4,11-diazatricyclo[14.2.2.1^6,10]henicosa-1(18),6,8,10 (21),16,19-hexaene-3,12-dione; trifluoroacetic acid] | 320 nM | – | 1391 | 0.23 nM
Cc1cc2ccc1[C@@H](C)COC(=O)Nc1cc(F)c(S(=O)(=O)C3CC3)c(c1)CN(C)C(=O)[C@@H]2Nc1cc2ccnc(N)c2cc1F.O=C(O)C(F)(F)F [Example 29, (2R,15R)-2-[(1-Amino-7-fluoroisoquinolin-6-yl)amino]-7-(cyclopropanesulfonyl)-8-fluoro-4,15,17-trimethyl-13-oxa-4,11-diazatricyclo[14.2.2.1^6,10]henicosa-1(18),6,8,10 (21),16,19-hexaene-3,12-dione; trifluoroacetic acid] | 750 nM | – | 4412 | 0.17 nM
Cc1cc2ccc1[C@@H](C)COC(=O)Nc1cc(F)c(S(=O)(=O)C(C)C)c(c1)CN(C)C(=O)[C@@H]2Nc1cc2ccnc(N)c2cc1F.O=C(O)C(F)(F)F [Example 34, (2R,15R)-2-[(1-Amino-7-fluoroisoquinolin-6-yl)amino]-8-fluoro-4,15,17-trimethyl-7-(propane-2-sulfonyl)-13-oxa-4,11-diazatricyclo[14.2.2.1^6,10]henicosa-1(18),6,8,10 (21),16,19-hexaene-3,12-dione; trifluoroacetic acid] | 2100 nM | – | 15000 | 0.14 nM
Cc1cc2ccc1[C@@H](C)COC(=O)Nc1ccc(C3(c4nnn[nH]4)CC3)c(c1)CN(C)C(=O)[C@@H]2Nc1ccc2c(N)nccc2c1.O=C(O)C(F)(F)F [Example 36, (2R,15R)-2-[(1-Aminoisoquinolin-6-yl)amino]-4,15,20-trimethyl-7-[1-(1H-1,2,3,4-tetrazol-5-yl)cyclopropyl]-13-oxa-4,11-diazatricyclo[14.2.2.1^6,10]henicosa-1(18),6,8,10 (21),16,19-hexaene-3,12-dione; trifluoroacetic acid] | 230 nM | – | 1917 | 0.12 nM
Cc1cc2ccc1[C@@H](C)COC(=O)Nc1cc(F)c(O[C@@H]3CCOC3)c(c1)CN(C)C(=O)[C@@H]2Nc1ccc2c(N)nccc2c1.O=C(O)C(F)(F)F [Example 38, (2R,15R)-2-[(1-Aminoisoquinolin-6-yl)amino]-8-fluoro-4,15,20-trimethyl-7-[(3R)-oxolan-3-yloxy]-13-oxa-4,11-diazatricyclo[14.2.2.1^6,10]henicosa-1(18),6,8,10 (21),16,19-hexaene-3,12-dione; trifluoroacetic acid] | 290 nM | – | 5800 | 0.05 nM
Cc1cc2ccc1[C@@H](C)COC(=O)Nc1cc(F)c(O[C@H]3CCOC3)c(c1)CN(C)C(=O)C2Nc1ccc2c(N)nccc2c1.O=C(O)C(F)(F)F (stereo partly drawn) [Example 39, (15R)-2-[(1-Aminoisoquinolin-6-yl)amino]-8-fluoro-4,15,20-trimethyl-7-[(3S)-oxolan-3-yloxy]-13-oxa-4,11-diazatricyclo[14.2.2.1^6,10]henicosa-1(18),6,8,10 (21),16,19-hexaene-3,12-dione; trifluoroacetic acid] | 100 nM | – | 5000 | 0.02 nM

Further lines, results first:

Ki (tissue kallikrein (HK1)) | Ki (human FVIIa) | Ki(HK1)/Ki(FVIIa) (human FVIIa) | Ki (human FVIIa; read-out: FVIIa Ki, nM 37° C.) | Structure (SMILES)
490 nM | 0.44 nM | 1114 | – | Cc1cc2ccc1[C@@H](C)COC(=O)Nc1cc(F)c(OCC3(C#N)CC3)c(c1)CN(C)C(=O)[C@@H]2Nc1ccc2c(N)nccc2c1.O=C(O)C(F)(F)F [Example 18, 1-({[(2R,15R)-2-[(1-Aminoisoquinolin-6-yl)amino]-8-fluoro-4,15,20-trimethyl-3,12-dioxo-13-oxa-4,11-diazatricyclo[14.2.2.1^6,10]henicosa-1(18),6,8,10 (21),16,19-hexaen-7-yl]oxy}methyl)cyclopropane-1-carbonitrile; trifluoroacetic acid]
290 nM | – | 1450 | 0.2 nM | COCCCOc1c(F)cc2cc1CN(C)C(=O)[C@H](Nc1ccc3c(N)nccc3c1)c1ccc(c(C)c1)[C@@H](C)COC(=O)N2.O=C(O)C(F)(F)F [Example 28, (2R,15R)-2-[(1-Aminoisoquinolin-6-yl)amino]-8-fluoro-7-(3-methoxypropoxy)-4,15,20-trimethyl-13-oxa-4,11-diazatricyclo[14.2.2.1^6,10]henicosa-1(18),6,8,10 (21),16,19-hexaene-3,12-dione; trifluoroacetic acid]
70 nM | – | 412 | 0.17 nM | Cc1cc2ccc1[C@@H](C)COC(=O)Nc1cc(F)c(O[C@H](C)CO)c(c1)CN(C)C(=O)[C@@H]2Nc1ccc2c(N)nccc2c1.O=C(O)C(F)(F)F [Example 30, (2R,15R)-2-[(1-Aminoisoquinolin-6-yl)amino]-8-fluoro-7-{[(2R)-1-hydroxypropan-2-yl]oxy}-4,15,20-trimethyl-13-oxa-4,11-diazatricyclo[14.2.2.16,10]henicosa-1(18),6,8,10 (21),16,19-hexaene-3,12-dione; trifluoroacetic acid]
41 nM | – | 273 | 0.15 nM | Cc1cc2ccc1[C@@H](C)COC(=O)Nc1cc(F)c(OC(CF)CF)c(c1)CN(C)C(=O)[C@@H]2Nc1ccc2c(N)nccc2c1.O=C(O)C(F)(F)F [Example 32, (2R,15R)-2-[(1-Aminoisoquinolin-6-yl)amino]-7-[(1,3-difluoropropan-2-yl)oxy]-8-fluoro-4,15,20-trimethyl-13-oxa-4,11-diazatricyclo[14.2.2.1^6,10]henicosa-1(18),6,8,10 (21),16,19-hexaene-3,12-dione; trifluoroacetic acid]
50 nM | – | 357 | 0.14 nM | Cc1cc2ccc1[C@@H](C)COC(=O)Nc1cc(F)c(O[C@@H](C)CO)c(c1)CN(C)C(=O)[C@@H]2Nc1ccc2c(N)nccc2c1.O=C(O)C(F)(F)F [Example 33, (2R,15R)-2-[(1-Aminoisoquinolin-6-yl)amino]-8-fluoro-7-{[(2S)-1-hydroxypropan-2-yl]oxy}-4,15,20-trimethyl-13-oxa-4,11-diazatricyclo[14.2.2.16,10]henicosa-1(18),6,8,10 (21),16,19-hexaene-3,12-dione; trifluoroacetic acid]
210 nM | – | 1500 | 0.14 nM | Cc1cc2ccc1[C@@H](C)COC(=O)Nc1cc(F)c(OCCN3CCCC3=O)c(c1)CN(C)C(=O)[C@@H]2Nc1ccc2c(N)nccc2c1.O=C(O)C(F)(F)F [Example 35, (2R,15R)-2-[(1-Aminoisoquinolin-6-yl)amino]-8-fluoro-4,15,20-trimethyl-7-[2-(2-oxopyrrolidin-1-yl)ethoxy]-13-oxa-4,11-diazatricyclo[14.2.2.16,10]henicosa-1(18),6,8,10 (21),16,19-hexaene-3,12-dione; trifluoroacetic acid]
190 nM | – | 1357 | 0.14 nM | COC[C@H](C)Oc1c(F)cc2cc1CN(C)C(=O)[C@H](Nc1ccc3c(N)nccc3c1)c1ccc(c(C)c1)[C@@H](C)COC(=O)N2.O=C(O)C(F)(F)F [Example 37, (2R,15R)-2-[(1-Aminoisoquinolin-6-yl)amino]-8-fluoro-7-{[(2S)-1-methoxypropan-2-yl]oxy}-4,15,20-trimethyl-13-oxa-4,11-diazatricyclo[14.2.2.1^6,10]henicosa-1(18),6,8,10 (21),16,19-hexaene-3,12-dione; trifluoroacetic acid]
